In US12421240B2, “Hydropyrazino[1,2-d][1,4]diazepine compounds for the treatment of autoimmune disease” (Hoffmann-La Roche Inc., priority 2019, dated 2025):

Molecular target: T1, hERG channel (Homo sapiens, UniProt Q12809)
T1 construct: expressed in transfected cells
Test: hERG channel inhibition assay (patch-clamp, CHO hERG cells)
Assay type: cell-based
Details: whole-cell patch-clamp; for IC20: human, CHO cells stably expressing hERG
Experimental: hERG Channel Inhibition Assay
The hERG K^+ channels were cloned in humans and stably expressed in a CHO (Chinese hamster ovary) cell line. CHOhERG cells were used for patch-clamp (voltage-clamp, whole-cell) experiments. Cells were stimulated by a voltage pattern to activate hERG channels and conduct IKhERG currents (rapid delayed outward rectifier potassium current of the hERG channel). After the cells were stabilized for a few minutes, the amplitude and kinetics of IKhERG were recorded at a stimulation frequency of 0.1 Hz (6 bpm). Thereafter, the test compound was added to the preparation at increasing concentrations. For each concentration, an attempt was made to reach a steady-state effect, usually, this was achieved within 3-10 min at which time the next highest concentration was applied. The amplitude and kinetics of IKhERG are recorded in each concentration of the drug which were compared to the control values (taken as 100%). (references: Redfern W S, Carlsson L, Davis A S, Lynch W G, MacKenzie I, Palethorpe S, Siegl P K, Strang I, Sullivan A T, Wallis R, Camm A J, Hammond T G. 2003; Relationships between preclinical cardiac electrophysiology, clinical QT interval prolongation and torsade de pointes for a broad range of drugs: evidence for a provisional safety margin in drug development. Cardiovasc. Res. 58:32-45, Sanguinetti M C, Tristani-Firouzi M. 2006; hERG potassium channels and cardiac arrhythmia. Nature 440:463-469, Webster R, Leishman D, Walker D. 2002; Towards a drug concentration effect relationship for QT prolongation and torsades de pointes. Curr. Opin. Drug Discov. Devel. 5:116-26).

T1 sequence (Q12809 whole entry): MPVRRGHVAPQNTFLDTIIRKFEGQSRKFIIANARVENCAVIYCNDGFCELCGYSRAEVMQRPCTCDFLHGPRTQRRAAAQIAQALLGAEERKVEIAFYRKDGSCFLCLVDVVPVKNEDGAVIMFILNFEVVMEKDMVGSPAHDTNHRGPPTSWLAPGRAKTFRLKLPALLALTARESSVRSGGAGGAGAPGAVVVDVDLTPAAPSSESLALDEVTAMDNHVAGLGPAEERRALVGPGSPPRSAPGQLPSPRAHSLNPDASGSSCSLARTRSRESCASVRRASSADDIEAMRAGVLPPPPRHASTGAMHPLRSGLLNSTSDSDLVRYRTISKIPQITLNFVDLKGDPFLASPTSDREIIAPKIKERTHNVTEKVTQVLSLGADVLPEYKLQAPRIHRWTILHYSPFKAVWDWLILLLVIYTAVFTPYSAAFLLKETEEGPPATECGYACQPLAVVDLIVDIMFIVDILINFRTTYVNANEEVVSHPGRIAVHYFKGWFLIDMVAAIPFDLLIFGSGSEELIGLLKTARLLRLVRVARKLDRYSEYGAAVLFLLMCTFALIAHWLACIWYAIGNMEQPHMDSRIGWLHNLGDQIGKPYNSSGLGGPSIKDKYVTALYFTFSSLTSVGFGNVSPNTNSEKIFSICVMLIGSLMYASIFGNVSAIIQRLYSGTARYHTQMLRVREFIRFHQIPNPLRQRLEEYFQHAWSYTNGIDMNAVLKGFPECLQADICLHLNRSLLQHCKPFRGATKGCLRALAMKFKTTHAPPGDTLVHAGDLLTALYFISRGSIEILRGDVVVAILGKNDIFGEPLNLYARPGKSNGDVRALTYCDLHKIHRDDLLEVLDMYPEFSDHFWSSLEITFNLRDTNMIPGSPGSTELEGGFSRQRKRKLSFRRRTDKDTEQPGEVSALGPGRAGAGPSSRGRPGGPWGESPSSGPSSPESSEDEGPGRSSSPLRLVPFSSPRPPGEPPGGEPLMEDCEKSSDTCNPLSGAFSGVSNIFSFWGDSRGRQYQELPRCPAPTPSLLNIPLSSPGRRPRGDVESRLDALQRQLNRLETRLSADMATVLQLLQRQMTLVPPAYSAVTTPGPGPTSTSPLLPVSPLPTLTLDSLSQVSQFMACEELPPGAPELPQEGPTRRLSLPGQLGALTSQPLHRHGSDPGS

Row | Structure (SMILES) | IC20 | IC50
1 | C[C@@H]1CN(c2ccc(C#N)c3ncccc23)C[C@@H]2CCN(Cc3cnc4c(c3)CNCC4)CCN21 [Example 10, 5-[(4R,10aS)-4-methyl-8-(5,6,7,8-tetrahydro-1,6-naphthyridin-3-ylmethyl)-1,3,4,6,7,9,10,10a-octahydropyrazino[1,2-d][1,4]diazepin-2-yl]quinoline-8-carbonitrile] | > 10 µM | > 20 µM
2 | C[C@@H]1CN(c2ccc(C#N)c3ncccc23)C[C@@H]2CCN(Cc3cnc(N4CCNCC4)cn3)CCN21 [Example 15, 5-[(4R,10aS)-4-methyl-8-[(5-piperazin-1-ylpyrazin-2-yl)methyl]-1,3,4,6,7,9,10,10a-octahydropyrazino[1,2-d][1,4]diazepin-2-yl]quinoline-8-carbonitrile] | > 10 µM | > 20 µM
3 | C[C@@H]1CN(c2ccc(C#N)c3ncccc23)C[C@@H]2CCN(c3cc4c(cn3)CNCC4)CCN21 [Example 7, 5-[(4R,10aS)-4-methyl-8-(5,6,7,8-tetrahydro-2,7-naphthyridin-3-yl)-1,3,4,6,7,9,10,10a-octahydropyrazino[1,2-d][1,4]diazepin-2-yl]quinoline-8-carbonitrile] | > 10 µM | > 20 µM
